Test results reported in BindingDB's records for doi:10.1016/s0960-894x(98)00444-2 (Wayne State University, 1999).

Biological target: Prothrombin (Homo sapiens, UniProt P00734)
Assay: ChEBML_216950
Method: Dissociation constant was evaluated by competitive inhibition of alpha-thrombin using the method of Dixon enzyme assay.

C1=[N+]2c3ccccc3C=[N+]3c4ccccc4C=[N+]4c5ccccc5C[N](c5ccccc51)[Pd]234 (stereo unspecified) [Palladium analogue]
Ki: 170 µM
